≈ marks a conversion by molar mass, not a printed value. Bridge positions count the residues as written; N and C are the ends. Square brackets hold non-standard residues; d marks the D form. Peptide text beside a SMILES is read from it. I, II: the chains in the order shown. * marks the point of attachment. ξ: configuration not given here. Lauroyl = CCCCCCCCCCCC(=O)*; Decanoyl = CCCCCCCCCC(=O)*; Octanoyl = CCCCCCCC(=O)*; Hexanoyl = CCCCCC(=O)*; ξK = NCCCCC(N)C(=O)O; Butyryl = CCCC(=O)*
Experiments:
Escherichia coli = assay: Antibacterial activity against Escherichia coli ATCC 25922 assessed as reduction in bacterial cell growth incubated for 16 to 24 hrs by CLSI-protocol based Mueller-Hinton Broth micro-dilution method; type: functional; conditions: time 16-24 hrs
Pseudomonas aeruginosa = assay: Antibacterial activity against Pseudomonas aeruginosa ATCC 27853 assessed as reduction in bacterial cell growth incubated for 16 to 24 hrs by CLSI-protocol based Mueller-Hinton Broth micro-dilution method; type: functional; conditions: time 16-24 hrs
Klebsiella pneumoniae = assay: Antibacterial activity against Klebsiella pneumoniae ATCC 700603 assessed as reduction in bacterial cell growth incubated for 16 to 24 hrs by CLSI-protocol based Mueller-Hinton Broth micro-dilution method; type: functional; conditions: time 16-24 hrs
Erythrocyte = assay: Hemolytic activity in human erythrocyte incubated for 70 mins by absorbance based assay; type: toxicity, cell-based; conditions: 1.167 h
Bacillus subtilis = assay: Antibacterial activity against Bacillus subtilis ATCC 23857 assessed as reduction in bacterial cell growth incubated for 16 to 24 hrs by CLSI-protocol based Mueller-Hinton Broth micro-dilution method; type: functional; conditions: time 16-24 hrs
Staphylococcus aureus = assay: Antibacterial activity against Staphylococcus aureus ATCC 25923 assessed as reduction in bacterial cell growth incubated for 16 to 24 hrs by CLSI-protocol based Mueller-Hinton Broth micro-dilution method; type: functional; conditions: time 16-24 hrs

SMILES | MIC (Escherichia coli) | MIC (Pseudomonas aeruginosa) | MIC (Klebsiella pneumoniae) | HC10 (Erythrocyte) | MIC (Bacillus subtilis) | MIC (Staphylococcus aureus)
CCCC(=O)NCC(=O)N[C@@H](CC(C)C)C(=O)N[C@@H](CC(C)C)C(=O)N[C@@H](CCCCN)C(=O)N[C@@H](CCCNC(=N)N)C(=O)N[C@H](C(=O)N[C@@H](CCCCN)C(=O)N[C@H](C(=O)N[C@@H](CC(C)C)C(=O)N[C@@H](CC(C)C)C(N)=O)[C@@H](C)O)[C@@H](C)CC (Butyryl-GLLKRIKTLL-NH2) | 256 µM (≈ 313 µg/mL) | 64 µM (≈ 78.3 µg/mL) | 256 µM (≈ 313 µg/mL) | > 256 µM | 256 µM (≈ 313 µg/mL) | 256 µM (≈ 313 µg/mL)
CCCCCCCCCC(=O)NCC(=O)N[C@@H](CC(C)C)C(=O)N[C@@H](CC(C)C)C(=O)N[C@@H](CCCCN)C(=O)N[C@@H](CCCNC(=N)N)C(=O)N[C@H](C(=O)N[C@@H](CCCCN)C(=O)N[C@H](C(=O)N[C@@H](CC(C)C)C(=O)N[C@@H](CC(C)C)C(N)=O)[C@@H](C)O)[C@@H](C)CC (Decanoyl-GLLKRIKTLL-NH2) | 16 µM (≈ 20.9 µg/mL) | 8 µM (≈ 10.5 µg/mL) | 16 µM (≈ 20.9 µg/mL) | 16.36 µM | 8 µM (≈ 10.5 µg/mL) | 8 µM (≈ 10.5 µg/mL)
CCCCCC(=O)NCC(=O)N[C@@H](CC(C)C)C(=O)N[C@@H](CC(C)C)C(=O)N[C@@H](CCCCN)C(=O)N[C@@H](CCCNC(=N)N)C(=O)N[C@H](C(=O)N[C@@H](CCCCN)C(=O)N[C@H](C(=O)N[C@@H](CC(C)C)C(=O)N[C@@H](CC(C)C)C(N)=O)[C@@H](C)O)[C@@H](C)CC (Hexanoyl-GLLKRIKTLL-NH2) | 128 µM (≈ 160 µg/mL) | 16 µM (≈ 20 µg/mL) | 128 µM (≈ 160 µg/mL) | > 256 µM | 16 µM (≈ 20 µg/mL) | 64 µM (≈ 80.1 µg/mL)
CCCC(=O)NCC(=O)N[C@@H](CC(C)C)C(=O)N[C@@H](CC(C)C)C(=O)N[C@@H](CCCCN)C(=O)N[C@@H](CCCNC(=N)N)C(=O)N[C@H](C(=O)N[C@@H](CCCCN)C(=O)N[C@H](C(=O)N[C@@H](CC(C)C)C(=O)N[C@@H](CC(C)C)C(=O)NCCCCC(NC(=O)[C@H](CC(C)C)NC(=O)[C@H](CC(C)C)NC(=O)[C@@H](NC(=O)[C@H](CCCCN)NC(=O)[C@@H](NC(=O)[C@H](CCCNC(=N)N)NC(=O)[C@H](CCCCN)NC(=O)[C@H](CC(C)C)NC(=O)[C@H](CC(C)C)NC(=O)CNC(=O)CCC)[C@@H](C)CC)[C@@H](C)O)C(N)=O)[C@@H](C)O)[C@@H](C)CC (stereo not given in full) (I: Butyryl-GLLKRIKTLL[ξK]-NH2 / II: Butyryl-GLLKRIKTLL; amide I:11-II:C) | 4 µM (≈ 10.2 µg/mL) | 8 µM (≈ 20.5 µg/mL) | 8 µM (≈ 20.5 µg/mL) | 27.61 µM | 4 µM (≈ 10.2 µg/mL) | 8 µM (≈ 20.5 µg/mL)
CCCCCCCCCC(=O)NCC(=O)N[C@@H](CC(C)C)C(=O)N[C@@H](CC(C)C)C(=O)N[C@@H](CCCCN)C(=O)N[C@@H](CCCNC(=N)N)C(=O)N[C@H](C(=O)N[C@@H](CCCCN)C(=O)N[C@H](C(=O)N[C@@H](CC(C)C)C(=O)N[C@@H](CC(C)C)C(=O)NCCCC[C@H](NC(=O)[C@H](CCCCNC(=O)[C@H](CC(C)C)NC(=O)[C@H](CC(C)C)NC(=O)[C@@H](NC(=O)[C@H](CCCCN)NC(=O)[C@@H](NC(=O)[C@H](CCCNC(=N)N)NC(=O)[C@H](CCCCN)NC(=O)[C@H](CC(C)C)NC(=O)[C@H](CC(C)C)NC(=O)CNC(=O)CCCCCCCCC)[C@@H](C)CC)[C@@H](C)O)NC(=O)[C@H](CC(C)C)NC(=O)[C@H](CC(C)C)NC(=O)[C@@H](NC(=O)[C@H](CCCCN)NC(=O)[C@@H](NC(=O)[C@H](CCCNC(=N)N)NC(=O)[C@H](CCCCN)NC(=O)[C@H](CC(C)C)NC(=O)[C@H](CC(C)C)NC(=O)CNC(=O)CCCCCCCCC)[C@@H](C)CC)[C@@H](C)O)C(N)=O)[C@@H](C)O)[C@@H](C)CC (I: Decanoyl-GLLKRIKTLLKK-NH2 / II: Decanoyl-GLLKRIKTLL / III: Decanoyl-GLLKRIKTLL; amide I:11-III:C, I:12-II:C) |  |  |  | 146.63 µM |  | 
CCCCCCCCCC(=O)NCC(=O)N[C@@H](CC(C)C)C(=O)N[C@@H](CC(C)C)C(=O)N[C@@H](CCCCN)C(=O)N[C@@H](CCCNC(=N)N)C(=O)N[C@H](C(=O)N[C@@H](CCCCN)C(=O)N[C@H](C(=O)N[C@@H](CC(C)C)C(=O)N[C@@H](CC(C)C)C(=O)NCCCCC(NC(=O)[C@H](CC(C)C)NC(=O)[C@H](CC(C)C)NC(=O)[C@@H](NC(=O)[C@H](CCCCN)NC(=O)[C@@H](NC(=O)[C@H](CCCNC(=N)N)NC(=O)[C@H](CCCCN)NC(=O)[C@H](CC(C)C)NC(=O)[C@H](CC(C)C)NC(=O)CNC(=O)CCCCCCCCC)[C@@H](C)CC)[C@@H](C)O)C(N)=O)[C@@H](C)O)[C@@H](C)CC (stereo not given in full) (I: Decanoyl-GLLKRIKTLL[ξK]-NH2 / II: Decanoyl-GLLKRIKTLL; amide I:11-II:C) | 64 µM (≈ 175 µg/mL) | 256 µM (≈ 698 µg/mL) | 128 µM (≈ 349 µg/mL) | 26.56 µM | 256 µM (≈ 698 µg/mL) | 256 µM (≈ 698 µg/mL)
CC[C@H](C)[C@H](NC(=O)[C@H](CCCNC(=N)N)NC(=O)[C@H](CCCCN)NC(=O)[C@H](CC(C)C)NC(=O)[C@H](CC(C)C)NC(=O)CN)C(=O)N[C@@H](CCCCN)C(=O)N[C@H](C(=O)N[C@@H](CC(C)C)C(=O)N[C@@H](CC(C)C)C(=O)NCCCC[C@H](NC(=O)[C@H](CCCCNC(=O)[C@H](CC(C)C)NC(=O)[C@H](CC(C)C)NC(=O)[C@@H](NC(=O)[C@H](CCCCN)NC(=O)[C@@H](NC(=O)[C@H](CCCNC(=N)N)NC(=O)[C@H](CCCCN)NC(=O)[C@H](CC(C)C)NC(=O)[C@H](CC(C)C)NC(=O)CN)[C@@H](C)CC)[C@@H](C)O)NC(=O)[C@H](CC(C)C)NC(=O)[C@H](CC(C)C)NC(=O)[C@@H](NC(=O)[C@H](CCCCN)NC(=O)[C@@H](NC(=O)[C@H](CCCNC(=N)N)NC(=O)[C@H](CCCCN)NC(=O)[C@H](CC(C)C)NC(=O)[C@H](CC(C)C)NC(=O)CN)[C@@H](C)CC)[C@@H](C)O)C(N)=O)[C@@H](C)O (I: H-GLLKRIKTLLKK-NH2 / II: H-GLLKRIKTLL / III: H-GLLKRIKTLL; amide I:11-III:C, I:12-II:C) |  |  |  | 2.53 µM |  | 
CCCCCC(=O)NCC(=O)N[C@@H](CC(C)C)C(=O)N[C@@H](CC(C)C)C(=O)N[C@@H](CCCCN)C(=O)N[C@@H](CCCNC(=N)N)C(=O)N[C@H](C(=O)N[C@@H](CCCCN)C(=O)N[C@H](C(=O)N[C@@H](CC(C)C)C(=O)N[C@@H](CC(C)C)C(=O)NCCCC[C@H](NC(=O)[C@H](CCCCNC(=O)[C@H](CC(C)C)NC(=O)[C@H](CC(C)C)NC(=O)[C@@H](NC(=O)[C@H](CCCCN)NC(=O)[C@@H](NC(=O)[C@H](CCCNC(=N)N)NC(=O)[C@H](CCCCN)NC(=O)[C@H](CC(C)C)NC(=O)[C@H](CC(C)C)NC(=O)CNC(=O)CCCCC)[C@@H](C)CC)[C@@H](C)O)NC(=O)[C@H](CC(C)C)NC(=O)[C@H](CC(C)C)NC(=O)[C@@H](NC(=O)[C@H](CCCCN)NC(=O)[C@@H](NC(=O)[C@H](CCCNC(=N)N)NC(=O)[C@H](CCCCN)NC(=O)[C@H](CC(C)C)NC(=O)[C@H](CC(C)C)NC(=O)CNC(=O)CCCCC)[C@@H](C)CC)[C@@H](C)O)C(N)=O)[C@@H](C)O)[C@@H](C)CC (I: Hexanoyl-GLLKRIKTLLKK-NH2 / II: Hexanoyl-GLLKRIKTLL / III: Hexanoyl-GLLKRIKTLL; amide I:11-III:C, I:12-II:C) |  |  |  | 0.71 µM |  | 
CCCCCCCCCCCC(=O)NCC(=O)N[C@@H](CC(C)C)C(=O)N[C@@H](CC(C)C)C(=O)N[C@@H](CCCCN)C(=O)N[C@@H](CCCNC(=N)N)C(=O)N[C@H](C(=O)N[C@@H](CCCCN)C(=O)N[C@H](C(=O)N[C@@H](CC(C)C)C(=O)N[C@@H](CC(C)C)C(=O)NCCCC[C@H](NC(=O)[C@H](CCCCNC(=O)[C@H](CC(C)C)NC(=O)[C@H](CC(C)C)NC(=O)[C@@H](NC(=O)[C@H](CCCCN)NC(=O)[C@@H](NC(=O)[C@H](CCCNC(=N)N)NC(=O)[C@H](CCCCN)NC(=O)[C@H](CC(C)C)NC(=O)[C@H](CC(C)C)NC(=O)CNC(=O)CCCCCCCCCCC)[C@@H](C)CC)[C@@H](C)O)NC(=O)[C@H](CC(C)C)NC(=O)[C@H](CC(C)C)NC(=O)[C@@H](NC(=O)[C@H](CCCCN)NC(=O)[C@@H](NC(=O)[C@H](CCCNC(=N)N)NC(=O)[C@H](CCCCN)NC(=O)[C@H](CC(C)C)NC(=O)[C@H](CC(C)C)NC(=O)CNC(=O)CCCCCCCCCCC)[C@@H](C)CC)[C@@H](C)O)C(N)=O)[C@@H](C)O)[C@@H](C)CC (I: Lauroyl-GLLKRIKTLLKK-NH2 / II: Lauroyl-GLLKRIKTLL / III: Lauroyl-GLLKRIKTLL; amide I:11-III:C, I:12-II:C) |  |  |  | 103.52 µM |  | 
CCCCCCCC(=O)NCC(=O)N[C@@H](CC(C)C)C(=O)N[C@@H](CC(C)C)C(=O)N[C@@H](CCCCN)C(=O)N[C@@H](CCCNC(=N)N)C(=O)N[C@H](C(=O)N[C@@H](CCCCN)C(=O)N[C@H](C(=O)N[C@@H](CC(C)C)C(=O)N[C@@H](CC(C)C)C(=O)NCCCC[C@H](NC(=O)[C@H](CCCCNC(=O)[C@H](CC(C)C)NC(=O)[C@H](CC(C)C)NC(=O)[C@@H](NC(=O)[C@H](CCCCN)NC(=O)[C@@H](NC(=O)[C@H](CCCNC(=N)N)NC(=O)[C@H](CCCCN)NC(=O)[C@H](CC(C)C)NC(=O)[C@H](CC(C)C)NC(=O)CNC(=O)CCCCCCC)[C@@H](C)CC)[C@@H](C)O)NC(=O)[C@H](CC(C)C)NC(=O)[C@H](CC(C)C)NC(=O)[C@@H](NC(=O)[C@H](CCCCN)NC(=O)[C@@H](NC(=O)[C@H](CCCNC(=N)N)NC(=O)[C@H](CCCCN)NC(=O)[C@H](CC(C)C)NC(=O)[C@H](CC(C)C)NC(=O)CNC(=O)CCCCCCC)[C@@H](C)CC)[C@@H](C)O)C(N)=O)[C@@H](C)O)[C@@H](C)CC (I: Octanoyl-GLLKRIKTLLKK-NH2 / II: Octanoyl-GLLKRIKTLL / III: Octanoyl-GLLKRIKTLL; amide I:11-III:C, I:12-II:C) |  |  |  | 59.73 µM |  | 

Reference: ChEMBL document CHEMBL5608163, “Structure modification of anoplin for fighting resistant bacteria” (Eur J Med Chem, 2024)
